Literature values as cited in patent US8921533B2, “Glycosylated valproic acid analogs and uses thereof” (Chromatin Technologies, priority 2011, dated 2014).
Like-named read-outs stand apart in the source and are kept apart here.

System: sensitised guinea pig tracheal rings
Conditions: also contraction induced by histamine, 5-hydroxytryptamine and carbachol

CCCC(=O)[O-].[Na+] [sodium butyrate]
inhibition of antigen-induced contraction of tracheal rings (1 mM): weak inhibitors

CCCC(CCC)C(=O)[O-].[Na+] [sodium valproate]
inhibition of antigen-induced contraction of tracheal rings (100 microM): weak inhibitors
